Where two headings read alike, the source gives them in different places.
Tests used:
[1] = tested on: TNFα production in LPS-stimulated human monocytes; experiment: Cot Monocyte TNFα Cell Based Assay; conditions: Homo sapiens, Monocyte, read-out: EC50 TNF
In short: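 Percent-of-control values derive from TR-FRET ratios of TNFα in spun-down media, referenced to unstimulated and LPS-stimulated wells. Exposure: 1 h compound preincubation, then 50 pg/ml LPS for 4 h, both at 37 °C, with 0.5% final DMSO.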

[2] = biological target: T1, human Cot catalytic domain (30-397 amino acids) (Homo sapiens, UniProt P41279); experiment: High Throughput Cot Biochemical Assay (KinEASE TR-FRET); conditions: read-out: IC50 HTRF
T1 construct: Purified recombinant human Cot catalytic domain (30-397 amino acids) was purchased from Cama Biosciences; purchased Cama Biosciences (so in the source)
In short: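 Phosphorylation of 1 μM XL665-STK3 peptide by 5 nM Cot catalytic domain was measured by time-resolved FRET using a europium […] antibody. ATP was 400 μM; buffer was 10 mM MOPS pH 7.0 with Mg2+ and DTT.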

[3] = TNFα in LPS-stimulated human monocytes
[4] = Cot biochemical HTRF (KinEASE TR-FRET) assay
[5] = Cot KinEASE TR-FRET (HTRF) biochemical assay, 400 μM ATP
[6] = LPS-stimulated human monocytes, TNFα TR-FRET
[7] = Cot KinEASE TR-FRET, 400 μM ATP

T1 sequence (P41279 30-397): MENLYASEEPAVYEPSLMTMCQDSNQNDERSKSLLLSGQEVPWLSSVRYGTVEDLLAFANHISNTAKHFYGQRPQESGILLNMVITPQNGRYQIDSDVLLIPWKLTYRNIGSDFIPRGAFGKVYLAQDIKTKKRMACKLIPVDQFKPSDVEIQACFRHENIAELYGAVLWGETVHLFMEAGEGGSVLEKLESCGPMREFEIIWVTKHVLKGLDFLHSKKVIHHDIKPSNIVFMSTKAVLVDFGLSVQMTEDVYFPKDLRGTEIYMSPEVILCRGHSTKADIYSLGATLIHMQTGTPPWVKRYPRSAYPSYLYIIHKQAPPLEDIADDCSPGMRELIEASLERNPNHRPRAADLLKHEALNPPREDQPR

Compound	EC50 [1, 3]	IC50 [2, 4]	IC50 [2, 5]	EC50 [1, 6]	IC50 [2, 7]
[2H][C@@](Nc1cc(Cl)c2ncc(C#N)c(N[C@H](CC)c3ccccc3)c2c1)(c1cn(C2CC2)nn1)c1cccc(C#N)c1Cl [Example 292, 8-chloro-6-(((S)-(2-chloro-3-cyanophenyl)(1-cyclopropyl-1H-1,2,3-triazol-4-yl)methyl-d)amino)-4-(((R)-1-phenylpropyl)amino)quinoline-3-carbonitrile]	237 nM		13 nM		
CC[C@@H](Nc1c(C#N)cnc2c(Cl)cc(N[C@@H](c3ccc(F)cc3)c3cn(C(C)C)nn3)cc12)c1ccc(C)cc1 [Example 365, 8-chloro-6-(((S)-(4-fluorophenyl)(1-isopropyl-1H-1,2,3-triazol-4-yl)methyl)amino)-4-(((R)-1-(p-tolyl)propyl)amino)quinoline-3-carbonitrile]	9330 nM		868 nM		
[2H][C@](Nc1cc(-c2cncnc2)c2ncc(C#N)c(NCC(C)(C)C)c2c1)(c1ccc(F)cc1)c1cn(C2CC2)nn1 [Compound 12]	205 nM		20 nM		
CC(C)(C)CNc1c(C#N)cnc2c(C#N)cc(N[C@@H](c3ccccc3)c3cn(C4(C(F)(F)F)CC4)nn3)cc12 [Example 1065, (S)-4-(neopentylamino)-6-((phenyl(1-(1-(trifluoromethyl)cyclopropyl)-1H-1,2,3-triazol-4-yl)methyl)amino)quinoline-3,8-dicarbonitrile]				237 nM	22 nM
CC(C)(C)CNc1c(C#N)cnc2c(C#N)cc(N[C@@H](c3ccc(F)cc3)c3cn(C4(c5ccccn5)CC4)nn3)cc12 [Example 968, (S)-6-(((4-fluorophenyl)(1-(1-(pyridin-2-yl)cyclopropyl)-1H-1,2,3-triazo1-4-yl)methyl)amino)-4-(neopentylamino) quinoline-3,8-dicarbonitrile]				110 nM	17 nM

The remaining lines, values ahead:

EC50 [1, 3]	IC50 [2, 4]	IC50 [2, 5]	EC50 [1, 6]	IC50 [2, 7]	Compound
475 nM	5 nM				CC(C)n1cc([C@@H](Nc2cc(Cl)c3ncc(C#N)c(Nc4ccc(F)c(Cl)c4)c3c2)c2cccc(N3CCC3=O)c2)nn1 [Example 551, (S)-8-chloro-4-((3-chloro-4-fluorophenyl)amino)-6-(((1-isopropyl-1H-1,2,3-triazol-4-yl)(3-(2-oxoazetidin-1-yl)phenyl)methyl)amino)quinoline-3-carbonitrile]
6750 nM	44 nM				Cc1ccccc1CNc1c(C#N)cnc2c(Cl)cc(N[C@@H](c3ccc(Cl)cc3)c3cn(C4CCN(C(C)(C)C)CC4)nn3)cc12 [Example 680, (S)-6-(((1-(1-(tert-butyl)piperidin-4-yl)-1H-1,2,3-triazol-4-yl)(4-chlorophenyl)methyl)amino)-8-chloro-4-((2-methylbenzyl)amino)quinoline-3-carbonitrile]
			≥ 1000 nM	142 nM	[2H]c1c([C@@]([2H])(Nc2cc(Cl)c3ncc(C#N)c(NCC(C)(C)C)c3c2)c2c(F)cccc2Cl)nnn1C1(C)CC1 [Example 1046, (S)-8-chloro-6-(((2-chloro-6-fluorophenyl)(1-(1-methylcyclopropyl)-1H-1,2,3-triazol-4-yl-5-d)methyl-d)amino)-4-(neopentylamino)quinoline-3-carbonitrile]
4260 nM	726 nM				CC(C)(C)N1CCC(n2cc([C@@H](Nc3cc(Cl)c4ncc(C#N)c(Nc5ccc(F)c(OC(F)(F)F)c5)c4c3)c3ccccc3)nn2)CC1 [Example 525, (S)-6-(((1-(1-(tert-butyl)piperidin-4-yl)-1H-1,2,3-triazol-4-yl)(phenyl)methyl)amino)-8-chloro-4-((4-fluoro-3-(trifluoromethoxy)phenyl)amino)quinoline-3-carbonitrile]
674 nM		49 nM			N#Cc1cnc2c(Cl)cc(N[C@@H](c3ccc(F)cc3)c3cn(-c4ccccc4F)nn3)cc2c1Nc1cnc(F)c(F)c1 [Example 337, (S)-8-chloro-4-((5,6-difluoropyridin-3-yl)amino)-6-(((4-fluorophenyl) (1-(2-fluorophenyl)-1H-1,2,3-triazol-4-yl)methyl)amino)quinoline-3-carbonitrile]

From patent US10316017B2, “COT modulators and methods of use thereof” (Gilead Sciences, Inc., priority 2015, dated 2019)
